System: 233499-124-R-J3-PDC spheroids with HUVEC/MSC, viability
Assay: Anticancer human tumor 233499-124-R-J3-PDC patient-derived colon adenocarcinoma cell line growth inhibition [PI3K]
Conditions: for IC50: curve of first compound; for viability, T/C: stronger effect = lower value; active = viability on the fitted dose curve at most 10% of control; inactive = the rest
Outline: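 We assembled tumor spheroids that included a stromal compartment of HUVEC and MSCs, then exposed them to targeted agents alone and together with PI3K pathway inhibitors. Concentration series descended by half-log from clinically achievable Cmax levels. Viability served as the endpoint.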

[1] = second compound 0.0316 µM, first compound 0.0316 µM
[2] = second compound 0.0316 µM, first compound 0.1 µM
[3] = second compound 0.0316 µM, first compound 0.316 µM
[4] = second compound 0.0316 µM, first compound 1 µM
[5] = second compound 0.1 µM, first compound 0.0316 µM
[6] = second compound 0.1 µM, first compound 0.1 µM
[7] = second compound 0.1 µM, first compound 0.316 µM
[8] = second compound 0.1 µM, first compound 1 µM
[9] = second compound 0.316 µM, first compound 0.0316 µM
[10] = second compound 0.316 µM, first compound 0.1 µM
[11] = second compound 0.316 µM, first compound 0.316 µM
[12] = second compound 0.316 µM, first compound 1 µM
[13] = second compound 1 µM, first compound 0.0316 µM
[14] = second compound 1 µM, first compound 0.1 µM
[15] = second compound 1 µM, first compound 0.316 µM
[16] = second compound 1 µM, first compound 1 µM
[17] = second compound 3.16 µM, first compound 0.0316 µM
[18] = second compound 3.16 µM, first compound 0.1 µM
[19] = second compound 3.16 µM, first compound 0.316 µM
[20] = second compound 3.16 µM, first compound 1 µM
[21] = second compound 10 µM, first compound 0.0316 µM
[22] = second compound 10 µM, first compound 0.1 µM
[23] = second compound 10 µM, first compound 0.316 µM
[24] = second compound 10 µM, first compound 1 µM
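Note: spheroids exposed to agents for seven days before readout.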
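Throughout, for viability, T/C: percent viability relative to DMSO vehicle control taken as 100%.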

CC(C)NCC(C(=O)N1CCN(c2ncnc3c2C(C)CC3O)CC1)c1ccc(Cl)cc1 (centres undefined) + CC(Nc1ncnc2nc[nH]c12)c1cc2cccc(Cl)c2c(=O)n1-c1ccccc1
> 10 µM: IC50 (second compound 0.0316 µM) | IC50 (second compound 0.1 µM) | IC50 (second compound 0.316 µM) | IC50 (second compound 1 µM) | IC50 (second compound 3.16 µM) | IC50 (second compound 10 µM)
inactive: viability, T/C [1] 86.1% | viability, T/C [2] 100% | viability, T/C [3] 94.8% | viability, T/C [4] 94.8% | viability, T/C (second compound 0.0316 µM, first compound 3.16 µM) 77.1% | viability, T/C (second compound 0.0316 µM, first compound 10 µM) 74.5% | viability, T/C [5] 93.3% | viability, T/C [6] 96.7% | viability, T/C [7] 77.6% | viability, T/C [8] 83.8% | viability, T/C (second compound 0.1 µM, first compound 3.16 µM) 110% | viability, T/C (second compound 0.1 µM, first compound 10 µM) 87.4% | viability, T/C [9] 95.7% | viability, T/C [10] 102% | viability, T/C [11] 95.8% | viability, T/C [12] 87.8% | viability, T/C (second compound 0.316 µM, first compound 3.16 µM) 86.9% | viability, T/C (second compound 0.316 µM, first compound 10 µM) 71.9% | viability, T/C [13] 91.1% | viability, T/C [14] 88.3% | viability, T/C [15] 88.1% | viability, T/C [16] 106% | viability, T/C (second compound 1 µM, first compound 3.16 µM) 82.1% | viability, T/C (second compound 1 µM, first compound 10 µM) 65.2% | viability, T/C [17] 91% | viability, T/C [18] 93.6% | viability, T/C [19] 96.9% | viability, T/C [20] 85.7% | viability, T/C (second compound 3.16 µM, first compound 3.16 µM) 81.1% | viability, T/C (second compound 3.16 µM, first compound 10 µM) 77.5% | viability, T/C [21] 78% | viability, T/C [22] 89.9% | viability, T/C [23] 87.4% | viability, T/C [24] 68.8% | viability, T/C (second compound 10 µM, first compound 3.16 µM) 99.5% | viability, T/C (second compound 10 µM, first compound 10 µM) 88%

CCN1CCN(Cc2ccc(Nc3ncc(F)c(-c4cc(F)c5nc(C)n(C(C)C)c5c4)n3)nc2)CC1 + CC(Nc1ncnc2nc[nH]c12)c1cc2cccc(Cl)c2c(=O)n1-c1ccccc1
0.963 µM: IC50 (second compound 1 µM)
0.193 µM: IC50 (second compound 10 µM)
inactive: viability, T/C (second compound 0.0316 µM, first compound 0.00316 µM) 102% | viability, T/C (second compound 0.0316 µM, first compound 0.01 µM) 93.5% | viability, T/C [1] 83.2% | viability, T/C [2] 70.1% | viability, T/C [3] 61.5% | viability, T/C [4] 48.5% | viability, T/C (second compound 0.1 µM, first compound 0.00316 µM) 101% | viability, T/C (second compound 0.1 µM, first compound 0.01 µM) 108% | viability, T/C [5] 86.7% | viability, T/C [6] 73.8% | viability, T/C [7] 61.4% | viability, T/C [8] 47% | viability, T/C (second compound 0.316 µM, first compound 0.00316 µM) 97.1% | viability, T/C (second compound 0.316 µM, first compound 0.01 µM) 87.3% | viability, T/C [9] 85.4% | viability, T/C [10] 84.2% | viability, T/C [11] 66.3% | viability, T/C [12] 45.2% | viability, T/C (second compound 1 µM, first compound 0.00316 µM) 104% | viability, T/C (second compound 1 µM, first compound 0.01 µM) 90.8% | viability, T/C [13] 76% | viability, T/C [14] 83.8% | viability, T/C [15] 54.3% | viability, T/C [16] 50.8% | viability, T/C (second compound 3.16 µM, first compound 0.00316 µM) 80.2% | viability, T/C (second compound 3.16 µM, first compound 0.01 µM) 79.2% | viability, T/C [17] 95.2% | viability, T/C [18] 72.6% | viability, T/C [19] 39% | viability, T/C [20] 32.8% | viability, T/C (second compound 10 µM, first compound 0.00316 µM) 75.9% | viability, T/C (second compound 10 µM, first compound 0.01 µM) 73.7% | viability, T/C [21] 90.8% | viability, T/C [22] 57% | viability, T/C [23] 51% | viability, T/C [24] 38.4%
0.788 µM: IC50 (second compound 0.316 µM)
0.832 µM: IC50 (second compound 0.1 µM)
0.214 µM: IC50 (second compound 3.16 µM)
0.916 µM: IC50 (second compound 0.0316 µM)
